# Tested on: Helicobacter pylori (Hp) strain B5-3
# Assay: In vitro bactericidal concentration (MBC) against Helicobacter pylori, broth dilution and plate counting
# Details: for Bactericidal rate % / Concentration CFU/mL / Average number of colonies: shake flask about 24 hours; for Average number of colonies: dilution factor 10^−4
smiles,measurement,setting,value
"O=C(O[C@@H]1Cc2c(O)cc(O)cc2O[C@@H]1c1cc(O)c(O)c(O)c1)c1cc(O)c(O)c(O)c1 [EGCG, Epigallocatechin gallate]",Bactericidal rate %,EGCG 100 μM,98.8%
same,Concentration CFU/mL,EGCG 100 μM,1.4 × 10^7 CFU/mL
same,Average number of colonies,EGCG 100 μM,142
same,Bactericidal rate %,EGCG 200 μM,>99.9%
same,Concentration CFU/mL,EGCG 200 μM,3.5 × 10^6 CFU/mL
same,Average number of colonies,EGCG 200 μM,35
same,Bactericidal rate %,EGCG 400 μM,>99.9%
same,Concentration CFU/mL,EGCG 400 μM,2.2 × 10^6 CFU/mL
same,Average number of colonies,EGCG 400 μM,22
same,MBC,"Helicobacter pylori, 24 h, read-out: minimum bactericidal concentration (MBC)",200 µM
same,Hp inactivated,"shake flask culture, lowest concentration of 100 μM",about 98.9%

# From patent US20240238242A1, “EGCG buccal tablet and use thereof” (priority 2023, published 2024)
